tested on: human mutated 5HT2A receptor, AP-3; experiment: Receptor-mediated inositol phosphate (IP3) accumulation, AP-3; format: cell-based; details: 10 μM test compound, triplicate; control without test compound
Experimental: On day one, 1×10^7 293 cells per 150 mm plate were plated out. On day two, two reaction tubes were prepared (the proportions to follow for each tube are per plate): tube A was prepared by mixing 20 μg DNA (e.g., pCMV vector; pCMV vector AP-1 cDNA, etc.) in 1.2 ml serum free DMEM (Irvine Scientific, Irvine, Calif.); tube B was prepared by mixing 120 μl lipofectamine (Gibco BRL) in 1.2 ml serum free DMEM. Tubes A and B were then admixed by inversions (several times), followed by incubation at room temperature for 30-45 min. The admixture is referred to as the "transfection mixture". Plated 293 cells were washed with 1×PBS, followed by addition of 10 ml serum free DMEM. 2.4 ml of the transfection mixture was then added to the cells, followed by incubation for 4 hrs at 37° C./5% CO2. On day 3, cells were trypsinized and counted, followed by plating of 1×10^6 cells/well (poly D-lysine treated 12-well plates). Cells were permitted to adhere to the wells, followed by one wash with 1×PBS. Thereafter, 0.5 μCi ^3 H-inositol in 1 ml inositol-free DMEM was added per well. Protocol B.
On day 4, the cells were washed with 0.5 ml PBS and then 0.45 ml of assay medium was added containing inositol-free/serum free media, 10 μM pargyline, 10 mM lithium chloride, or 0.4 ml of assay medium and 50 ul of 10× ketanserin (ket) to a final concentration of 10 μM. The cells were then incubated for 30 minutes at 37° C. Then the cells were washed with 0.5 ml PBS and 200 ul of fresh/ice cold stop solution (1M KOH; 18 mM Na-borate; 3.8 mM EDTA) was added/well. The solution was kept on ice for 5-10 minutes or until the cells were lysed and then neutralized by 200 μl of fresh/ice cold neutralization sol. (7.5% HCL). The lysate was then transferred into 1.5 ml microcentrifuge tubes and 1 ml of chloroform/methanol (1:2) was added/tube. The solution was vortexed for 15 seconds and the upper phase was applied to a Biorad AG1-X8 anion exchange resin (100-200 mesh). The resin was washed with water and 0.9 ml of the upper phase was loaded onto the column. The column was washed with 10 mls of 5 mM myo-inositol and 10 ml of 5 mM Na-borate/60 mM Na-formate. The inositol trisphosphates were eluted into scintillation vials containing 10 ml of scintillation cocktail with 2 ml of 0.1 M formic acid/1 M ammonium formate. The columns were regenerated by washing with 10 ml of 0.1 M formic acid/3M ammonium formate and rinsed twice with dd H2 O and stored at room temperature in water.
Candidate compound identified in the assays of Examples 9a-9c were then evaluated for inositol phosphate accumulation, following the protocol of Example 5 ([…] expressing human mutated 5HT2A receptor, AP-3), modified as follows: tube A was prepared by mixing 16 μg DNA (e.g., pCMV vector; pCMV vector AP-1 cDNA, etc.) in 1.0 ml serum free DMEM (Irvine Scientific, Irvine, Calif.); tube B was prepared by mixing 60 μl lipofectamine (Gibco BRL) in 1.0 ml serum free DMEM. Tubes A and B were then admixed by inversions (several times), followed by incubation at room temperature for 30 min. The admixture is referred to as the "transfection mixture". Plated 293 cells were washed with 10 ml Serum Free DMEM, followed by addition of 11 ml Serum Free DMEM. 2.0 ml of the transfection mixture was then added to the cells, followed by incubation for 5 hrs at 37° C./5% CO2. On day 3, cells were trypsinized and counted, followed by plating of 1×10^6 cells/well (12-well plates). Cells were permitted to adhere to the wells for 8 hrs, followed by one wash with 1×PBS. Thereafter, 0.5 μCi ^3 H-inositol in 1 ml inositol-free DMEM was added per well.
On day 4, the cells were washed with 1.5 ml PBS and then 0.9 ml of assay medium was added containing inositol-free/serum free media, 10 μM pargyline, 10 mM lithium chloride, for 5 min in 37° C./5% CO2 followed by 100 μl addition of candidate compound diluted in the same material. The cells were then incubated for 120 minutes at 37° C. […]

Row | SMILES | IP3 % of Control [%]
1 | CSc1ccc(NC(=O)Nc2cccc(-c3nn(C)cc3Br)c2)cc1 [Compound 116079, N-[3-(4-bromo-1-methylpyrazol-3-yl)phenyl][(4-methylthiophenyl)amino]carboxamide] | 16
2 | Cn1cc(Br)c(-c2cccc(NC(=O)Nc3ccccc3OC(F)(F)F)c2)n1 [Compound 116087, {[3-(4-bromo-1-methylpyrazol-3-yl)phenyl]amino}-N-[2-(trifluoromethoxy)phenyl]carboxamide] | 11
3 | Cn1cc(Br)c(-c2cccc(NC(=O)Nc3ccccc3[N+](=O)[O-])c2)n1 [Compound 116089, {[3-(4-bromo-1-methylpyrazol-3-yl)phenyl]amino}-N-(2-nitrophenyl)carboxamide] | 27
4 | COc1ccc(NC(=O)Nc2cccc(-c3nn(C)cc3Br)c2)cc1 [Compound 116091, {[3-(4-bromo-1-methylpyrazol-3-yl)phenyl]amino}-N-(4-methoxyphenyl)carboxamide] | 12
5 | Cc1ccccc1NC(=O)Nc1cccc(-c2nn(C)cc2Br)c1 [Compound 116092, {[3-(4-bromo-1-methylpyrazol-3-yl)phenyl]amino}-N-(2-methylphenyl)carboxamide] | 32
6 | Cn1cc(Br)c(-c2cccc(NC(=O)Nc3ccc(C(F)(F)F)cc3)c2)n1 [Compound 116097, {[3-(4-bromo-1-methylpyrazol-3-yl)phenyl]amino}-N-[4-(trifluoromethyl)phenyl]carboxamide] | 11
7 | Cn1cc(Br)c(-c2cccc(NC(=O)Nc3cccc(Cl)c3)c2)n1 [Compound 116105, {[3-(4-bromo-1-methylpyrazol-3-yl)phenyl]amino}-N-(3-chlorophenyl)carboxamide] | 11
8 | Cn1cc(Br)c(-c2cccc(NC(=O)Nc3ccccc3Cl)c2)n1 [Compound 116108, {[3-(4-bromo-1-methylpyrazol-3-yl)phenyl]amino}-N-(2-chlorophenyl)carboxamide] | 6
9 | CC(C)c1ccc(NC(=O)Nc2cccc(-c3nn(C)cc3Br)c2)cc1 [Compound 116110, {[3-(4-bromo-1-methylpyrazol-3-yl)phenyl]amino}-N-[4-(methylethyl)phenyl]carboxamide] | 7
10 | COc1cccc(NC(=O)Nc2cccc(-c3nn(C)cc3Br)c2)c1 [Compound 116111, {[3-(4-bromo-1-methylpyrazol-3-yl)phenyl]amino}-N-(3-methoxyphenyl)carboxamide] | 7
11 | Cc1cccc(NC(=O)Nc2cccc(-c3nn(C)cc3Br)c2)c1 [Compound 116112, {[3-(4-bromo-1-methylpyrazol-3-yl)phenyl]amino}-N-(3-methylphenyl)carboxamide] | 14
12 | Cn1cc(Br)c(-c2cccc(NC(=O)Nc3ccc(C(C)(C)C)cc3)c2)n1 [Compound 116119, N-[4-(tert-butyl)phenyl]{[3-(4-bromo-1-methylpyrazol-3-yl)phenyl]amino}carboxamide] | 17
13 | CN(C)c1ccc(NC(=O)Nc2cccc(-c3nn(C)cc3Br)c2)cc1 [Compound 116122, N-[4-(dimethylamino)phenyl]{[3-(4-bromo-1-methylpyrazol-3-yl)phenyl]amino}carboxamide] | 9
14 | Cc1c(Cl)cc(NC(=O)Nc2cccc(-c3nn(C)cc3Br)c2)cc1Cl [Compound 116138, N-(3,5-dichloro-4-methylphenyl){[3-(4-bromo-1-methylpyrazol-3-yl)phenyl]amino}carboxamide] | 23

same assay, conditions: AP-3; Example 10

Row | SMILES | IC50 [nM]
15 | Cn1cc(Br)c(-c2cccc(NC(=O)Nc3ccc(OC(F)(F)F)cc3)c2)n1 [Compound 103487, N-[3-(4-bromo-1-methylpyrazol-3-yl)phenyl][{(4-trifluoromethoxy)phenyl}amino]carboxamide] | 90
